row,melting point [°C],SMILES
1,105,"Cc1ccc(NC(=O)c2ccc(CN3CCN(c4ncccn4)CC3)cc2)cc1Br [Compound 4a, N-(3-Bromo-4-methylphenyl)-4-((4-(pyrimidin-2-yl)piperazin-1-yl)methyl)benzamide]"
2,135,"COc1ccc(CN2CCN(Cc3ccc(C(=O)Nc4ccc(C)c(Br)c4)cc3)CC2)c(OC)c1OC [Compound 4b, N-(3-Bromo-4-metylphenyl)-4-((4-(2,3,4-trimethoxybenzyl)piperazin-1-yl)methyl)benzamide]"
3,116,"Cc1ccc(NC(=O)c2ccc(CN3CCOCC3)cc2)cc1Br [Compound 4c, N-(3-Bromo-4-methylphenyl)-4-(morpholinomethyl)benzamide]"
